Measurements: patent US9663463B2, “3-azabicyclo[3.1.0]hexane derivative and use thereof for medical purpose” (priority 2013, dated 2017)
Counter-ions that a name gives are not always drawn.

Columns and labels:
[1] = biological target: hERG (Homo sapiens (Human), UniProt Q12809); assay: Safety margin against hERG inhibitory activity; conditions: hERG IC50×1000/{concentration in plasma at ED50×(1−protein binding rate/100)}
Protocol: In order to compare the risks of extension of QT interval prolongation in the electrocardiogram among the test substances, the safety margins against the hERG inhibitory effect were calculated. […] Therefore, the following formula was used for calculating the safety margin, and the obtained values were described in Table 7. Safety margin against hERG inhibitory effect=IC50×1000/{concentration in plasma×(1−protein binding rate/100)}
IC50: the IC50 value in a hERG inhibition assay (μM)
Plasma concentration: the plasma concentration of test substance (nM) at the ED50 value in the test for evaluating the anti-pruritic effect in the morphine model
Protein binding rate: the protein binding rate (%) in the protein binding assay in murine serum

[2] = Plasma concentration of test substance at ED50 value (mice, LC/MS/MS); format: in vivo; conditions: at the ED50 value, at time of morphine administration, oral, linear regression from two doses
Protocol: The concentration of the test substances in blood plasma was confirmed by using mice of the same week-old for the same dose as that used in the evaluation of the anti-pruritic effect. The test substance was administered by forced oral administration of an administration vehicle prepared in a similar manner to that in the evaluation of the anti-pruritic effect under a non-fasting condition. The blood samples were collected from the orbital venous plexus, within from 15 minutes after the administration of the test substance to after 180 minutes at the maximum, for multiple times including the timing at which the morphine solution was intracisternally administered, under inhalation anesthesia with diethyl ether or isoflurane using a heparin-treated hematocrit tubes. The collected blood samples were immediately ice-cooled and centrifuged at 1,800 g for 15 minutes at 4° C., and the plasma fractions were transferred and stored under freezing at −30° C. or less until measurement.
The concentrations of the test substances in plasma were measured using LC/MS/MS. Furthermore, as the measurement samples for LC/MS/MS, the supernatants obtained by adding an internal standard substance and acetonitrile in an amount within a range from 5-fold to 10-fold of the amount of the plasma to the collected plasma samples, and removing proteins therefrom, was used.

[3] = in vitro; format: in vitro ADME, mice; conditions: Crl:CD-1 (ICR), mouse, pH 7.4; murine serum, equilibrium dialysis, 37° C., 5 to 6 hours; read-out: Protein binding rate (converted)
Protocol: The protein binding rate was determined by equilibrium dialysis method using the RED Device (8K MWCO, Rapid Equilibrium Dialysis Device, Thermo Scientific). The test substances that had been dissolved in DMSO were added to the serum that was collected from Crl: CD-1 (ICR) mice fasted overnight, so that the final concentration of DMSO became 1% (v/v). The serum to which the test substance had been added was added to the inner side of the dialysis membrane of the RED Device, and PBS (phosphate buffer saline, pH 7.4) containing 0.01% (v/v) Tween 80 was added to the outside in accordance with the method for using the RED Device and incubated at 37° C. for 5 to 6 hours with ellipsoidal shaking at 100 rpm so that the concentration of the unbound test substance in the serum and the concentration of the test substance in the PBS reached equilibrium. After the incubation was completed, the respective solutions were collected and stored under freezing at −60° C. or less as measurement samples. The proteins were removed from the measurement sample by adding acetonitrile in an amount of 5-fold or more of the amount of the internal standard substance and the serum sample, and the supernatants were measured by LC/MS/MS (liquid chromatograph—triple quadrupole mass spectrometer). The serum samples were measured after suitably diluting with distilled water as necessary.
A: the concentration of the test substance in the PBS sample
B: the concentration of the test substance in the serum sample

[4] = biological target: human μ-opioid receptor (Homo sapiens (Human), UniProt P35372); assay: Antagonist activity test using [35S]-GTPγS bond as index using human μ-opioid receptor-expressing cell membrane; format: biochemical
Protocol: Cells in which a human μ-opioid receptor had been highly expressed was purchased from ChanTest (Cleveland). The cells were cultured in a carbon dioxide gas culturing apparatus by using a Ham's F12 culture medium (Invitrogen) containing 10% of fetal bovine blood serum, 1% of non-essential amino acids, 0.4 mg/ml of G418, 100 U/ml of penicillin and 100 μg/ml of streptomycin. The cultured cells were suspended by using a 0.25% trypsin 1 mM EDTA solution, the suspension was collected by using phosphate-buffered saline and centrifuged at 4° C. and 1,000 rpm for 10 minute to remove the supernatant, whereby a cell mass was obtained. […] Similar homogenization and centrifugation operations were repeated on the sediment, a homogenized buffer was added again to the obtained sediment, and the resultant was similarly homogenized to give a membrane fraction solution. The obtained membrane fraction solution was dispensed, rapidly frozen and stored under freezing at −70° C. or less until use. Furthermore, the protein concentration of the obtained membrane fraction solution was measured by using a BCA protein Assay Kit (Cat. 23227, Pierce) according to the protocol attached to the kit.
The cell membrane fraction solution in which the human μ-opioid receptor had expressed, which had been stored under freezing, was melted, a GTP assay buffer (100 mM NaCl, 5 mM MgCl2, 1 mM EDTA-containing 50 mM Hepes (pH 7.4)) was added thereto, and the resultant was homogenized repeatedly twice by using a Polytron homogenizer (SMT Multi Disperser PB95) under ice cooling at 12,000 rpm for 20 seconds to give a homogeneous solution, and the homogeneous solution was diluted to 0.036 mg/ml with a GTP assay buffer containing 18.2 μM of GDP (final concentration: […]). The dilution was incubated for 15 minutes or more under ice cooling until the reaction was initiated. […] [^35S]-GTPγS (NEG030X, Perkinelmer) was diluted with a GTP assay buffer so as to be 0.616 nM (final concentration: 0.08 nM). The resultant was diluted with a GTP assay buffer so as to be 200 nM (final concentration: 10 nM) by using [D-Ala^2, N-Me-Phe^4, Gly^5-ol]-enkephalinacetate (DAMGO, Sigma) as a μ-opioid receptor agonist. WGA Coated PVT SPA Beads (RPNQ0001, Perkinelmer) were added so as to be 20 mg/ml with a GTP assay buffer, and the resultant was suspended (final concentration: 1 mg/well). 4 μL/well of a test substance solution, 10 μL/well of a DAMGO solution, 26 μL/well of a [^35S]-GTPγS solution, […] of a suspension liquid of WGA Coated PVT SPA Beads, and 110 μL/well of the membrane fraction solution were added to a 96 well plate (1450-401, Perkinelmer), the top part of the plate was sealed, and a reaction was performed at 30° C. for 60 minutes under stirring with a plate shaker. For each measurement plate, a well to which DMSO had been added instead of the test substance, and a well to which DMSO had been added instead of the test substance and a GTP assay buffer had been added instead of the DAMGO solution were prepared. Furthermore, after the reaction was completed, the reactant was centrifuged at room temperature and 1,000 rpm for 3 minutes, and the radioactivity was measured by a microplate scintillation luminescence counter (Perkinelmer).
The IC50 value of the test substance was calculated by using Graphpad Prism 5.

[5] = biological target: hERG current (Homo sapiens (Human), UniProt Q12809); assay: cell-based
Text: A: the suppression rate (%) of the test substance in each cell
B: the average suppression rate (%) of the vehicle control group

Chain of hERG current (Q12809 whole entry): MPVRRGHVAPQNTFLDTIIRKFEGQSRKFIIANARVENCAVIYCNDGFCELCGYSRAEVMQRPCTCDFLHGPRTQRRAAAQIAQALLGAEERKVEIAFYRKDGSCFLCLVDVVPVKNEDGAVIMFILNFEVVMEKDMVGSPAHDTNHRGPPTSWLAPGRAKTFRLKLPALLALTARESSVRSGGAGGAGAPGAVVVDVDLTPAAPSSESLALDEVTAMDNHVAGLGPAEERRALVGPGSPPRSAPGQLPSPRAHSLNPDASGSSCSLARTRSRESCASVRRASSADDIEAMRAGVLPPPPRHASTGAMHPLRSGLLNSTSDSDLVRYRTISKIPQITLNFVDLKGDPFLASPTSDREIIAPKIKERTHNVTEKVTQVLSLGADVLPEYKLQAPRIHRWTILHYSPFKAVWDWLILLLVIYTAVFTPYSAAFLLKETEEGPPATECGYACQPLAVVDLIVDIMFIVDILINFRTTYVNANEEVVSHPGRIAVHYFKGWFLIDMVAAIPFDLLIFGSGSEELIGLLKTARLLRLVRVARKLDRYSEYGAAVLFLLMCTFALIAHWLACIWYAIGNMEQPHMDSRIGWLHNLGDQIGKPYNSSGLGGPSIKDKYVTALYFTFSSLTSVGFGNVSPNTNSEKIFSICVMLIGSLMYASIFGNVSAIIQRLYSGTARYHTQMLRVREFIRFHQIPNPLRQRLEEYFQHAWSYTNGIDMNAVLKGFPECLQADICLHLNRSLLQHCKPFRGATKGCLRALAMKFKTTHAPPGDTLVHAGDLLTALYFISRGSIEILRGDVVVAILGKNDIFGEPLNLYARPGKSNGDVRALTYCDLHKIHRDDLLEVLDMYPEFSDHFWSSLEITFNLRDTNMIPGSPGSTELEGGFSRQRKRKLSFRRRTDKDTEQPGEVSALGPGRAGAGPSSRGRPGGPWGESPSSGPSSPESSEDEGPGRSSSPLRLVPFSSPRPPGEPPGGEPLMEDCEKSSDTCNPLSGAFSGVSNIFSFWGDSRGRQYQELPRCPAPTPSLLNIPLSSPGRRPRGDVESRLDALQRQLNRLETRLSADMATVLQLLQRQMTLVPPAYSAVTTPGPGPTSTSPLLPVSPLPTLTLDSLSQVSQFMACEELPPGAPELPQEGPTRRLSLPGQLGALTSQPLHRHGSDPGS

Compound	Safety margin [1]	Plasma concentration of test substance [2] [nM]	fraction unbound [3]	IC50 [4] [nM]	IC50 [5] [nM]
CC[C@]1(c2cc(NS(=O)(=O)C3CC3)ccc2F)[C@@H]2CN(CC3(O)Cc4ccccc4C3)C[C@@H]21 [Example 2-(b), N-(3-{(1R,5S,6r)-6-ethyl-3-[(2-hydroxy-2,3-dihydro-1H-inden-2-yl)methyl]-3-azabicyclo[3.1.0]hexan-6-yl}-4-fluorophenyl)cyclopropanesulfonamide hydrochloride]	1250	21.4	0.006	2	160
CC[C@]1(c2cc(NS(=O)(=O)C3CC3)ccc2F)[C@@H]2CN(CCCC3CCC(F)(F)CC3)C[C@@H]21 [Example 5-(b), N-(3-{(1R,5S,6r)-3-[3-(4,4-difluorocyclohexyl)propyl]-6-ethyl-3-azabicyclo[3.1.0]hexan-6-yl}-4-fluorophenyl)cyclopropanesulfonamide hydrochloride]	153	116	0.005	1.6	89
CC[C@]1(c2cc(NS(=O)(=O)C3CC3)ccc2F)[C@@H]2CN(CCCN3CCC(F)(F)CC3)C[C@@H]21 [Example 15-(b), N-(3-{(1R,5S,6r)-3-[3-(4,4-difluoropiperidin-1-yl)propyl]-6-ethyl-3-azabicyclo[3.1.0]hexan-6-yl}-4-fluorophenyl)cyclopropanesulfonamide hydrochloride]	182	71.5	0.1	1.7	1300
CC[C@]1(c2cc(F)cc(NS(=O)(=O)C3CC3)c2)[C@@H]2CN(CC3(O)Cc4ccccc4C3)C[C@@H]21 [Example 10-(b), N-(3-{(1R,5S,6r)-6-ethyl-3-[(2-hydroxy-2,3-dihydro-1H-inden-2-yl)methyl]-3-azabicyclo[3.1.0]hexan-6-yl}-5-fluorophenyl)cyclopropanesulfonamide hydrochloride]	5	129	0.102	3.2	62
CC[C@]1(c2cccc(NS(=O)(=O)C3CC3)c2)[C@@H]2CN(CCCN3CCCC(F)(F)C3)C[C@@H]21 [Example 16-(b), N-(3-{(1R,5S,6r)-3-[3-(3,3-difluoropiperidin-1-yl)propyl]-6-ethyl-3-azabicyclo[3.1.0]hexan-6-yl}phenyl)cyclopropanesulfonamide hydrochloride]	58	44.5	0.246	3.1	640
CC[C@]1(c2cccc(NS(=O)(=O)C3CC3)c2)[C@@H]2CN(CCCC3CCC(F)(F)CC3)C[C@@H]21 [Example 4-(b), N-(3-{(1R,5S,6r)-3-[3-(4,4-difluorocyclohexyl)propyl]-6-ethyl-3-azabicyclo[3.1.0]hexan-6-yl}phenyl)cyclopropanesulfonamide hydrochloride]	157	31.6	0.019	1.5	94
CC[C@]1(c2cccc(NS(=O)(=O)C3CC3)c2)[C@@H]2CN(CCCN3CCC(F)(F)C3)C[C@@H]21 [Example 8-(b), N-(3-{(1R,5S,6r)-3-[3-(3,3-difluoropyrrolidin-1-yl)propyl]-6-ethyl-3-azabicyclo[3.1.0]hexan-6-yl}phenyl)cyclopropanesulfonamide hydrochloride]	99	10.9	0.316	2.9	340
